The values below come from article PMC10060354, “Discovery of a small molecule ligand of FRS2 that inhibits invasion and tumor growth” (Cellular Oncology, 2022).

The test system of this assay is DAOY FRS2-FLAG cells. The assay is described as follows: SIA, bFGF-induced collagen I invasion in FRS2-FLAG overexpressing cells. The format is cell-based. To be noted: Homo sapiens. How it is done: 1000—2500 cells/well in 100 μl were seeded in 96 well Corning® Spheroid microplate (CLS4520, Sigma-Aldrich) or in cell-repellent 96 well microplate (650,790, Greiner Bio-one). SIA and analysis was performed as described before. In brief: After spheroid formation (24 – 72 h after seeding), 70 µl medium was removed and replaced with the collagen mixture (2.5 mg/ml Pure Col Collagen I (Advanced Biomatrix)), DMEM 1x (from 10 × stock, Sigma, D2429) and 0.4% Sodium bicarbonate (Sigma, S8761)), resulting in a final collagen concentration of 1.75 mg/ml. Embedded spheroids were stimulated with bFGF (100 ng/ml if not otherwise stated), HGF (30 ng /ml) or EGF (20 ng/ml) and distance of invaded cells quantified 24 – 48 h after embedding. Compounds and BGJ398 were added in Dimethylsulfoxid (DMSO) and corresponding DMSO concentrations were used in control samples.
Lentiviral construct pLV[Exp]-hPGK > hFRS2[NM_001278357.1](ns)*/3xFLAG:P2A:Puro was ordered from VectorBuilder (Santa Clara, CA, USA). A FLAG-tag ([…]) was fused to the C-terminus of FRS2. Lentiviral particles were produced by transfection of HEK-293 T cells with transfer plasmids, psPAX2 (#12,260, Addgene) and pCMV-VSV-G plasmid (#8454, Addgene) in a ratio of 5:3:2 using polyethlenimine (24,765–2. Polysciences). Virus supernatant was harvested 30 h post transfection and filtered. […]

Regarding `O=[N+]([O-])c1c(Cl)cc(O)c2c1C1C=CCC1C(c1ccc(Cl)cc1)N2` (stereo not shown) [Compound 7], 4.16 µM corresponded to half-maximal inhibition (IC50).

For orientation: IC50 means the concentration that gives 50% inhibition. High values mean weaker potency in that assay, low ones greater potency in that assay.
